These results are taken from patent US11207312B2, “Metallo-beta-lactamase inhibitors and methods of use thereof” (priority 2017, dated 2021).

The target of one series is VIM-2 (Escherichia coli, UniProt Q5U7L7). As to the kind of experiment: biochemical. Conditions: CCF2-FA fluorescence assay; read-out: VIM2 IC50.
For series [1], the system named is Escherichia coli expressing NDM-1 (CLB30016). It counts as cell-based. The settings on record: with imipenem 1 μg/ml; 95% inhibition of bacterial growth. The gist of the method:
(§1)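 Clinical MBL-producing strains were grown overnight at 35 °C on blood agar, suspended in saline, diluted 1:100 into 1.1× CAMHB and exposed to test compound with imipenem at 1 μg/ml. After 22–24 h at 35 °C, absorbance gave MITC95: lowest compound concentration inhibiting 95% of growth.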

In series [2] the test system is Serratia marcescens expressing IMP-1 (CL5741). It counts as cell-based. The settings on record: with imipenem 1 μg/ml; 95% inhibition of bacterial growth. A digest of the protocol:
as §1

For series [3], the system named is Klebsiella pneumoniae expressing VIM-1 (IHMA599644). It counts as cell-based. The settings on record: with imipenem 1 μg/ml; 95% inhibition of bacterial growth. A digest of the protocol:
as §1

The next series concerns the target VIM-1 (Pseudomonas aeruginosa (strain ATCC 15692 / DSM 22644 / CIP 104116 / JCM 14847 / LMG 12228 / 1C / PRS 101 / PAO1), UniProt A0A0F7KYQ8). As to the kind of experiment: biochemical. Conditions: CCF2-FA fluorescence assay, 2 hours at 25° C.; read-out: VIM1 IC50. A digest of the protocol:
(§2)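 In 100 mM phosphate pH 7 containing Tween-20 and ZnSO4, NDM-1 (1 pM), IMP-1 (2 pM) or VIM-1 (30 pM) hydrolysed 1.25 μM CCF2-FA over 2 hours at 25° C with inhibitor present. Readout was 405/460 nm fluorescence.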

A further series concerns the target IMP-1 (Serratia marcescens, UniProt P52699). The series can be described thus: biochemical. Conditions: CCF2-FA fluorescence assay, 2 hours at 25° C.; read-out: IMP1 IC50. A digest of the protocol: as §2
The target in a further series is NDM-1 (Klebsiella pneumoniae, UniProt C7C422). The series can be described thus: biochemical. It counts as biochemical. Conditions: CCF2-FA fluorescence assay, 2 hours at 25° C. The gist of the method:
as §2

Series [4] concerns P. aeruginosa MB9799 (efflux-, IMP-1 plasmid). It counts as cell-based, Pseudomonas aeruginosa. Conditions: efflux − (MB9799) strain; imipenem at 2 μg/mL; in the presence of a class A, C, D serine β-lactamase inhibitor closely related to relebactam. The gist of the method: (§3)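 Isogenic P. aeruginosa PAO1 strains (efflux+ and multiple-efflux-pump-disrupted) carrying plasmid IMP-1, with inducible AmpC, tested by broth microdilution. Imipenem and/or ceftazidime fixed, usually at CLSI breakpoint, plus fixed class A/C β-lactamase inhibitor; titrated MBL inhibitor concentration restoring susceptibility recorded and compared between strains as efflux fold difference.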

Series [5] deals with P. aeruginosa MB9798 (efflux+, IMP-1 plasmid). Conditions: for MB9798 MITC95 P. aeruginosa uM Efflux WT: efflux + (MB9798) strain, imipenem at 2 μg/mL, in the presence of a class A, C, D serine β-lactamase inhibitor closely related to relebactam; for Efflux ratio: fold difference between efflux+ (MB9798) and efflux− (MB9799) strains. A digest of the protocol: as §3

IMP-1, sequence (P52699 whole entry, looked up, species assumed): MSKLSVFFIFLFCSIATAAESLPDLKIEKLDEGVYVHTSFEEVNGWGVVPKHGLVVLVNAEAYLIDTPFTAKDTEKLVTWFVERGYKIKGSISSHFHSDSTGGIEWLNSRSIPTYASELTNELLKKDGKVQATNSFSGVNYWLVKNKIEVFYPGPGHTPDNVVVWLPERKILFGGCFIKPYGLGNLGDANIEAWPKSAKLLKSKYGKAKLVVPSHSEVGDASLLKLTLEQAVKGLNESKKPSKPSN
NDM-1, sequence (C7C422 whole entry, looked up, species assumed): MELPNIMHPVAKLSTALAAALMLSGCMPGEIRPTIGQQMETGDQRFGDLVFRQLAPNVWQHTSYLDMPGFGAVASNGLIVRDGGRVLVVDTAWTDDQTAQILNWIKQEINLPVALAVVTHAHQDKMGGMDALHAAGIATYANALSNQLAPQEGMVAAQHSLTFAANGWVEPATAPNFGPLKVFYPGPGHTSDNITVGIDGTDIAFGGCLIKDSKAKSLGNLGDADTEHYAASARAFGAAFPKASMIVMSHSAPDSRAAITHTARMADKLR

In general, IC50 refers to the concentration that inhibits the measured activity by half. For the compound `NC[C@@H](O)CNS(=O)(=O)c1ccc(N2CCOC(CO)C2)c(-c2nn[nH]n2)c1S(N)(=O)=O` (stereo partly drawn) [Example 20, N^1—((R)-3-amino-2-hydroxypropyl)-4-(2-(hydroxymethyl)morpholino)-3-(2H-tetrazol-5-yl)benzene-1,2-disulfonamide], the IC50 on VIM-2 worked out at 0.49 nM; at VIM-1 it was 0.26 nM; on IMP-1, 1.53 nM; against NDM-1, 0.77 nM. The “CLB30016 E. coli MITC95 NDM” value in series [1] is 1.56 µM. Besides, the “CL5741 S. marcescens MITC95 IMP” value in series [2] stood at 0.78 µM. Further, in [3], the “IHMA599644 K. pneumoniae MITC95 VIM” value worked out at 3.13 µM. The “MB9799 MITC95 P. aeruginosa uM Efflux Mutant” value in series [4] came to 0.78 µM. Further, the “MB9798 MITC95 P. aeruginosa uM Efflux WT” value in [5] was 3.13 µM. Also, the Efflux ratio in series [5] is 4.00.

For the compound `NCC1=CCN(c2ccc(S(=O)(=O)NC[C@H](O)CN)c(S(N)(=O)=O)c2-c2nn[nH]n2)C1.O=C(O)C(F)(F)F.O=C(O)C(F)(F)F` [Example 170], the concentration for half-maximal inhibition (IC50) on VIM-2 stood at 42.9 nM; on VIM-1, 5.64 nM; at IMP-1 it was 15.3 nM; on NDM-1 it was 11.4 nM. The “CLB30016 E. coli MITC95 NDM” value in series [1] was determined as 1.56 µM. The “CL5741 S. marcescens MITC95 IMP” value in [2] worked out at 1.56 µM. Moreover, the “IHMA599644 K. pneumoniae MITC95 VIM” value in [3] came out at 1.56 µM. Besides, in series [4], the “MB9799 MITC95 P. aeruginosa uM Efflux Mutant” value came to 1.56 µM. Besides, in [5], the “MB9798 MITC95 P. aeruginosa uM Efflux WT” value came to 6.25 µM. The Efflux ratio in series [5] is 4.00.

For the compound `NC[C@@H](O)CNS(=O)(=O)c1ccc(N2CCC[C@@H](CN)C2)c(-c2nnn[nH]2)c1S(N)(=O)=O` [Example 38, N1-((R)-3-amino-2-hydroxypropyl)-4-((S)-3-(aminomethyl)piperidin-1-yl)-3-(1H-tetrazol-5-yl)benzene-1,2-disulfonamide], the IC50 at VIM-2 came out at 2.11 nM; at VIM-1, 0.67 nM; on IMP-1, 20.6 nM; at NDM-1 it was 6.3 nM. In series [1], the “CLB30016 E. coli MITC95 NDM” value is 0.20 µM. Besides, the “CL5741 S. marcescens MITC95 IMP” value in series [2] is 0.78 µM. Also, the “IHMA599644 K. pneumoniae MITC95 VIM” value in series [3] stood at 0.78 µM. Also, the “MB9799 MITC95 P. aeruginosa uM Efflux Mutant” value in series [4] amounted to 0.78 µM. Further, the “MB9798 MITC95 P. aeruginosa uM Efflux WT” value in series [5] came to 3.13 µM. Further, the Efflux ratio in series [5] is on record as 4.00.

As to `NS(=O)(=O)c1c(S(=O)(=O)N[C@@H]2CCNC2)ccc(N2CCCNC2=O)c1-c1nn[nH]n1` [Example 153, (R)-4-(2-oxotetrahydropyrimidin-1(2H)-yl)-N1-(pyrrolidin-3-yl)-3-(2H-tetrazol-5-yl)benzene-1,2-disulfonamide], the IC50 at VIM-2 is 1.1 nM; at VIM-1, 0.2 nM; at IMP-1, 7.23 nM; against NDM-1, 0.21 nM. Moreover, the “CLB30016 E. coli MITC95 NDM” value in series [1] stood at 0.78 µM. Besides, in [2], the “CL5741 S. marcescens MITC95 IMP” value is 1.56 µM. Moreover, the “IHMA599644 K. pneumoniae MITC95 VIM” value in [3] is 3.13 µM. In addition, the “MB9799 MITC95 P. aeruginosa uM Efflux Mutant” value in series [4] is 1.56 µM. In addition, the “MB9798 MITC95 P. aeruginosa uM Efflux WT” value in [5] came to 3.13 µM. Also, in series [5], the Efflux ratio is given as 2.00.

For `NC[C@@H](O)CNS(=O)(=O)c1ccc(N2CCC(CNCCO)CC2)c(-c2nn[nH]n2)c1S(N)(=O)=O` [Example 123, (R)-N1-(3-amino-2-hydroxypropyl)-4-(4-(((2-hydroxyethyl)amino)methyl)piperidin-1-yl)-3-(2H-tetrazol-5-yl)benzene-1,2-disulfonamide], the half-maximal inhibitory concentration (IC50) came out at 7.51 nM on VIM-2, 0.25 nM on VIM-1, 6.18 nM on IMP-1 and 10.8 nM at NDM-1. In series [1], the “CLB30016 E. coli MITC95 NDM” value is 0.39 µM. In addition, the “CL5741 S. marcescens MITC95 IMP” value in [2] turned out to be 0.39 µM. Also, the “IHMA599644 K. pneumoniae MITC95 VIM” value in [3] turned out to be 1.56 µM. For the same compound, in series [4], the “MB9799 MITC95 P. aeruginosa uM Efflux Mutant” value was 0.78 µM. Moreover, the “MB9798 MITC95 P. aeruginosa uM Efflux WT” value in series [5] is 1.56 µM. For the same compound, in series [5], the Efflux ratio is reported as 2.00.

Turning to `NCC1CCN(c2ccc(S(=O)(=O)NC[C@H](O)CN)c(S(N)(=O)=O)c2-c2nnn[nH]2)CC1` [Example 34], the IC50 on VIM-2 was determined as 3.49 nM; on VIM-1, 0.18 nM; at IMP-1, 4.07 nM; against NDM-1, 2.05 nM. Besides, the “CLB30016 E. coli MITC95 NDM” value in series [1] was determined as 0.39 µM. Moreover, the “CL5741 S. marcescens MITC95 IMP” value in series [2] turned out to be 0.39 µM. The “IHMA599644 K. pneumoniae MITC95 VIM” value in series [3] was found to be 0.39 µM. Besides, the “MB9799 MITC95 P. aeruginosa uM Efflux Mutant” value in [4] came out at 0.20 µM. The “MB9798 MITC95 P. aeruginosa uM Efflux WT” value in [5] is 0.39 µM. The Efflux ratio in series [5] is on record as 2.00.

For `NC[C@@H](O)CNS(=O)(=O)c1ccc(N2CCC(CO)CC2)c(-c2nnn[nH]2)c1S(N)(=O)=O` [Example 42, (R)-N1-(3-amino-2-hydroxypropyl)-4-(4-(hydroxymethyl)piperidin-1-yl)-3-(1H-tetrazol-5-yl)benzene-1,2-disulfonamide], the IC50 at VIM-2 worked out at 0.71 nM; on VIM-1 it was 0.16 nM; at IMP-1, 0.47 nM; against NDM-1 it was 0.45 nM. In addition, the “CLB30016 E. coli MITC95 NDM” value in series [1] is 3.13 µM. For the same compound, the “CL5741 S. marcescens MITC95 IMP” value in [2] worked out at 3.13 µM. Also, in series [3], the “IHMA599644 K. pneumoniae MITC95 VIM” value amounted to 6.25 µM. The “MB9799 MITC95 P. aeruginosa uM Efflux Mutant” value in [4] turned out to be 1.56 µM. Moreover, the “MB9798 MITC95 P. aeruginosa uM Efflux WT” value in series [5] is 1.56 µM. Besides, in [5], the Efflux ratio was 1.00.

For `NS(=O)(=O)c1c(S(=O)(=O)C2CNC2)ccc(N2CCN(CCCO)CC2)c1-c1nnn[nH]1` [Example 53, 6-(azetidin-3-ylsulfonyl)-3-[4-(3-hydroxypropyl)piperazin-1-yl]-2-(1H-tetrazol-5-yl)benzenesulfonamide], the half-inhibitory concentration (IC50) at VIM-2 came out at 35.5 nM; on VIM-1, 25.1 nM; at IMP-1, 7.81 nM; on NDM-1, 8.79 nM. In addition, the “CLB30016 E. coli MITC95 NDM” value in series [1] stood at 0.39 µM. In addition, in [2], the “CL5741 S. marcescens MITC95 IMP” value came to 0.39 µM. In addition, in [3], the “IHMA599644 K. pneumoniae MITC95 VIM” value was found to be 3.13 µM. The “MB9799 MITC95 P. aeruginosa uM Efflux Mutant” value in series [4] turned out to be 1.56 µM. Besides, the “MB9798 MITC95 P. aeruginosa uM Efflux WT” value in series [5] worked out at 6.25 µM. For the same compound, the Efflux ratio in series [5] is 4.00.

For the compound `N[C@@H]1CCCN(c2ccc(S(=O)(=O)N[C@@H]3CCNC3)c(S(N)(=O)=O)c2-c2nnn[nH]2)C1` [Example 86, 4-[(3R)-3-aminopiperidin-1-yl]-N1-[(3R)-pyrrolidin-3-yl]-3-(1H-tetrazol-5-yl)benzene-1,2-disulfonamide], the concentration for half-maximal inhibition (IC50) came to 14 nM on VIM-2, 3.83 nM on VIM-1, 58.8 nM on IMP-1 and 1.37 nM against NDM-1. In series [1], the “CLB30016 E. coli MITC95 NDM” value was found to be 0.39 µM. For the same compound, the “CL5741 S. marcescens MITC95 IMP” value in [2] turned out to be 1.56 µM. The “IHMA599644 K. pneumoniae MITC95 VIM” value in [3] stood at 1.56 µM. Besides, the “MB9799 MITC95 P. aeruginosa uM Efflux Mutant” value in [4] came to 1.56 µM. Also, in series [5], the “MB9798 MITC95 P. aeruginosa uM Efflux WT” value came out at 12.50 µM. Moreover, the Efflux ratio in series [5] worked out at 8.00.

As for `NS(=O)(=O)c1c(S(=O)(=O)N[C@@H]2CCNC2)ccc(N2CCC(CO)CC2)c1-c1nnn[nH]1` [Example 101, 4-[4-(hydroxymethyl)piperidin-1-yl]-N1-[(3R)-pyrrolidin-3-yl]-3-(1H-tetrazol-5-yl)benzene-1,2-disulfonamide], the half-maximal inhibitory concentration (IC50) is 0.39 nM at VIM-2, 0.09 nM on VIM-1, 0.16 nM at IMP-1 and 0.08 nM against NDM-1. The “CLB30016 E. coli MITC95 NDM” value in series [1] was found to be 0.78 µM. Further, the “CL5741 S. marcescens MITC95 IMP” value in series [2] was determined as 1.56 µM. The “IHMA599644 K. pneumoniae MITC95 VIM” value in series [3] came out at 3.13 µM. Moreover, the “MB9799 MITC95 P. aeruginosa uM Efflux Mutant” value in series [4] worked out at 0.78 µM. In addition, in series [5], the “MB9798 MITC95 P. aeruginosa uM Efflux WT” value was determined as 1.56 µM. In series [5], the Efflux ratio was found to be 2.00.
